How the values were obtained:
K667Δpdr5::pUGpd = experiment: Yeast whole-cell growth inhibition, vector-only control K667Δpdr5::pUGpd; format: cell-based, Saccharomyces cerevisiae; settings: compound screen
Procedure: The screening assay used here was developed from the protocol used by Pulcini et al. ([13]). A single colony of the yeast strain to be screened was picked and grown in 5 mL of selective medium until stationary phase was reached. The culture was diluted 100-fold in ampicillin-supplemented yeast extract-peptone-dextrose (YPD) medium to an OD at 620 nm (OD620) equivalent to that of lag phase. YPD medium was supplemented with an appropriate concentration of calcium, depending on the transformed strain. The optimal calcium concentration for the PfATP6-expressing strain was 22 mM, and that for the SERCA1a-expressing strain was […]. The optimal calcium concentration was periodically monitored and, if necessary, adjusted using a calcium concentration range of 10 to 30 mM. A final volume of 200 μL of the yeast culture was added to each well of a 96-well plate, with 5 technical replicates included per inhibitor. All inhibitors were dissolved in dimethyl sulfoxide (DMSO) unless otherwise stated. Stock solutions of each inhibitor were diluted 100-fold in each well to give the desired final concentration. […] The 96-well plates were incubated at 30°C for 42 h. The yeast growth was estimated from the absorbance at 620 nm in a Tecan plate reader. […] The data collected were analyzed using GraphPad Prism v9.0 (GraphPad software, San Diego, CA, U.S.A).

SERCA1a [1] = molecular target: T1, SERCA1a (Oryctolagus cuniculus, UniProt P04191); experiment: Yeast whole-cell growth inhibition assay, K667Δpdr5[SERCA1a]; format: cell-based, rabbit; parameters: containing the SERCA1a coding region from rabbit skeletal fast-twitch muscle; expressed in transfected cells; host or cells: Saccharomyces cerevisiae K667 and K667Δpdr5::HIS
T1 sequence (P04191 other isoform, or with tags, fused parts or gaps): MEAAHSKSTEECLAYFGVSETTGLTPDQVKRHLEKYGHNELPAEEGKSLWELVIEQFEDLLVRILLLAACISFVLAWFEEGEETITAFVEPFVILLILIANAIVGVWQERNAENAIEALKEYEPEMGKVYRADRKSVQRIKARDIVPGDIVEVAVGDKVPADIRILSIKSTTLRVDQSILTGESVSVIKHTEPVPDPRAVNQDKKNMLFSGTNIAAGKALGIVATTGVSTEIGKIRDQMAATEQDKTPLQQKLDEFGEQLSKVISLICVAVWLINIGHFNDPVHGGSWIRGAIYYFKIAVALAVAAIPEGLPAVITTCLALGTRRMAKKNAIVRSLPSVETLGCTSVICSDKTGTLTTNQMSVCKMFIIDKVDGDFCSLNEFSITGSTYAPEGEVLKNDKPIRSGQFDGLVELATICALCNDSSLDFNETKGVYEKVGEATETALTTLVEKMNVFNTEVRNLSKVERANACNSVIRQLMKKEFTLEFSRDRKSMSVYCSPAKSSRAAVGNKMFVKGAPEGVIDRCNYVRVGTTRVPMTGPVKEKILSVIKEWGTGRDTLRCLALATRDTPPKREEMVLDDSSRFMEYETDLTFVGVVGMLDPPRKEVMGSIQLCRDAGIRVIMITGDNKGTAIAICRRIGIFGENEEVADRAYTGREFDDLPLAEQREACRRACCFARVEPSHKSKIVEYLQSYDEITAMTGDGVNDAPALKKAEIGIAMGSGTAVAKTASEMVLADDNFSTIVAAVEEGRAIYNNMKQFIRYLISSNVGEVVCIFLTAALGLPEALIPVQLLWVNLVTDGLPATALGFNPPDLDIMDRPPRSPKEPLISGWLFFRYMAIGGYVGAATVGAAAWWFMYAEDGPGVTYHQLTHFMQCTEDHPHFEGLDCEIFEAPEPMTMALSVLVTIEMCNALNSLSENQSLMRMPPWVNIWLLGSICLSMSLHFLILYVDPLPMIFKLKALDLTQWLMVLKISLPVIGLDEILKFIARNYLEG
Procedure: (§1) Yeast transformations were performed using the method described by Gietz and Schiestl ([48]), and transformants were selected by an uracil auxotrophic marker. Transformations were confirmed by colony PCR. Both K667 and K667Δpdr5::HIS were transformed with the following plasmids: pUGpd plasmid as a vector-only control (derived from pRS316 [49]); br434 plasmid (derived from pRS316 [50]) containing the SERCA1a coding region from rabbit skeletal fast-twitch muscle (pbr434-SERCA1a); and pUGpd containing the yeast-optimized coding region of PfATP6 from Plasmodium falciparum (pUGpd-PfATP6). Site-directed mutagenesis was performed on the SERCA1a coding region to produce the mutation E255L in the protein. Mutations were also introduced into the PfATP6 coding region to produce mutations L263E, A623E, and S769N and the double mutation A623E/S769N ([13]).
(§2) The screening assay used here was developed from the protocol used by Pulcini et al. ([13]). A single colony of the yeast strain to be screened was picked and grown in 5 mL of selective medium until stationary phase was reached. The culture was diluted 100-fold in ampicillin-supplemented yeast extract-peptone-dextrose (YPD) medium to an OD at 620 nm (OD620) equivalent to that of lag phase. YPD medium was supplemented with an appropriate concentration of calcium, depending on the transformed strain. The optimal calcium concentration for the PfATP6-expressing strain was 22 mM, and that for the SERCA1a-expressing strain was […]. The optimal calcium concentration was periodically monitored and, if necessary, adjusted using a calcium concentration range of 10 to 30 mM. A final volume of 200 μL of the yeast culture was added to each well of a 96-well plate, with 5 technical replicates included per inhibitor. All inhibitors were dissolved in dimethyl sulfoxide (DMSO) unless otherwise stated. […] The yeast growth was estimated from the absorbance at 620 nm in a Tecan plate reader. […] The data collected were analyzed using GraphPad Prism v9.0 (GraphPad software, San Diego, CA, U.S.A).

PfATP6 = PfATP6 (Plasmodium falciparum, UniProt Q08853); experiment: cell-based; format: cell-based; parameters: pUGpd containing the yeast-optimized coding region of PfATP6 from Plasmodium falciparum; expressed in transfected cells; host or cells: Saccharomyces cerevisiae K667 and K667Δpdr5::HIS; settings: growth inhibition, K667Δpdr5[PfATP6]
PfATP6, sequence (Q08853 whole entry): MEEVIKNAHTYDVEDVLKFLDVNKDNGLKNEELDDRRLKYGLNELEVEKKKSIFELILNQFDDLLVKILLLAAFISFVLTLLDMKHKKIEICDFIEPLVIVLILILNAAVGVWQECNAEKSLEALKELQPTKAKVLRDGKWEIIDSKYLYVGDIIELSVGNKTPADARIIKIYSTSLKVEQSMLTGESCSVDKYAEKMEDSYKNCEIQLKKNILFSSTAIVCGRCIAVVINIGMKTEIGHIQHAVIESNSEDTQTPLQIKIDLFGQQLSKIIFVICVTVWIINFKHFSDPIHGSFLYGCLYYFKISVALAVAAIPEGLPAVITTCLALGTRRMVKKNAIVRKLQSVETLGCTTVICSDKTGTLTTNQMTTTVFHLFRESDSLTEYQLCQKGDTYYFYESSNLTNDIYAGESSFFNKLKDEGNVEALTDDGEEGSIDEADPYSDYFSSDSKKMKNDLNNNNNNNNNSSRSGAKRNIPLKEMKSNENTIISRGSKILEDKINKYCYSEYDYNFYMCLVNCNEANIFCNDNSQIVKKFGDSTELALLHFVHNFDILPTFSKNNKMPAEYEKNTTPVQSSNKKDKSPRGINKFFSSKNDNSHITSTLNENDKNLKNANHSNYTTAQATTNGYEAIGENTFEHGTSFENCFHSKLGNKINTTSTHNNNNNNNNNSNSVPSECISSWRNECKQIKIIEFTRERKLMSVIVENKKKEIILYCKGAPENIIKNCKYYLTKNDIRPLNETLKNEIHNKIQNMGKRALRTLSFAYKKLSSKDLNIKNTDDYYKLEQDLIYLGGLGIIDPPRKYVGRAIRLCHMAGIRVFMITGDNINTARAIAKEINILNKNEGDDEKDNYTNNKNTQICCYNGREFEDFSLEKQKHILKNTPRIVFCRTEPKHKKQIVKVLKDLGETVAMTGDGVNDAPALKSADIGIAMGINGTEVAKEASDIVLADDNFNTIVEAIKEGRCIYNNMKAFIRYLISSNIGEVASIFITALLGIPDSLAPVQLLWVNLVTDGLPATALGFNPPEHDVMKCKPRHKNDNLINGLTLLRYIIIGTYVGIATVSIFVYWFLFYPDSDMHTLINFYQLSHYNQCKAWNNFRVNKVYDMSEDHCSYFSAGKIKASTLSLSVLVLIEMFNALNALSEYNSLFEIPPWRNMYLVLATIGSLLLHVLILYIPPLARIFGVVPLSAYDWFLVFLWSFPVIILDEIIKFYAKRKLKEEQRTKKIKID
Procedure: The screening assay used here was developed from the protocol used by Pulcini et al. ([13]). A single colony of the yeast strain to be screened was picked and grown in 5 mL of selective medium until stationary phase was reached. The culture was diluted 100-fold in ampicillin-supplemented yeast extract-peptone-dextrose (YPD) medium to an OD at 620 nm (OD620) equivalent to that of lag phase. YPD medium was supplemented with an appropriate concentration of calcium, depending on the transformed strain. […] The optimal calcium concentration was periodically monitored and, if necessary, adjusted using a calcium concentration range of 10 to 30 mM. A final volume of 200 μL of the yeast culture was added to each well of a 96-well plate, with 5 technical replicates included per inhibitor. All inhibitors were dissolved in dimethyl sulfoxide (DMSO) unless otherwise stated. […] The 96-well plates were incubated at 30°C for 42 h. The yeast growth was estimated from the absorbance at 620 nm in a Tecan plate reader. Growth was normalized with the no-drug control to present data as percent growth. The data collected were analyzed using GraphPad Prism v9.0 (GraphPad software, San Diego, CA, U.S.A).

E255LSERCA1a = molecular target: T2, E255LSERCA1a (Oryctolagus cuniculus, UniProt P04191, E255L); experiment: Yeast whole-cell growth inhibition assay, K667Δpdr5[SERCA1a]255L; format: cell-based, rabbit
T2 construct: expressed in transfected cells; host or cells: Saccharomyces cerevisiae K667Δpdr5
T2 sequence (P04191 other isoform, or with tags, fused parts or gaps E255L): as the sequence (P04191 other isoform, or with tags, fused parts or gaps) above, with E255L counted along it
Procedure: The E255L mutation was introduced into SERCA1a using the following primers: forward, 5′-[…]-3′; reverse, 5′-[…]-3′. Site-directed mutagenesis was performed using the Agilent Quikchange Lightning site-directed mutagenesis kit, following the manufacturer’s instructions. Mutants were screened by Sanger sequencing (Eurofins, UK).
as §2, with “mM.” for “mM. A final volume of 200 μL of the yeast culture was added to each well of a 96-well plate, with 5 technical replicates included per inhibitor. All inhibitors were dissolved in dimethyl sulfoxide (DMSO) unless otherwise stated.”

SERCA1a [2] = molecular target: T1, SERCA1a; experiment: Yeast whole-cell growth inhibition assay, K667::SERCA1a; format: cell-based, rabbit; parameters: containing the SERCA1a coding region from rabbit skeletal fast-twitch muscle; expressed in transfected cells; host or cells: Saccharomyces cerevisiae K667 and K667Δpdr5::HIS; settings: measured at 40 h
Procedure: as §1
The screening assay used here was developed from the protocol used by Pulcini et al. ([13]). […] The optimal calcium concentration was periodically monitored and, if necessary, adjusted using a calcium concentration range of 10 to 30 mM. […] The yeast growth was estimated from the absorbance at 620 nm in a Tecan plate reader. […] The data collected were analyzed using GraphPad Prism v9.0 (GraphPad software, San Diego, CA, U.S.A).

SMILES	inhibition of control strain K667Δpdr5::pUGpd (K667Δpdr5::pUGpd)	inhibition of control strain K667Δpdr5::SERCA1a (SERCA1a [1]; compound screen)	inhibition of PfATP6 in compound screen (PfATP6)	IC50 (E255LSERCA1a)	fold less sensitive, E255LSERCA1a versus wild-type (E255LSERCA1a)	IC50 (SERCA1a [2])	fold lower IC50 in K667DPDR5::SERCA1a than in K667::SERCA1a (SERCA1a [1])	IC50 (SERCA1a [1]; K667DPDR5::SERCA1a (wild-type E255), measured at 40 h)
O=C(Nc1cccc(C(F)(F)F)c1)c1cc(Cl)ccc1O [MMV665807]	almost no inhibition	almost no inhibition	highest reproducible potency	–	–	–	–	–
C/C=C(/C)C(=O)O[C@H]1C(C)=C2[C@H]([C@@H]1OC(=O)CCCCCCC)[C@@](C)(OC(C)=O)C[C@H](OC(=O)CCC)[C@@]1(O)[C@H]2OC(=O)[C@@]1(C)O [thapsigargin]	–	–	–	794 ± 247 nM	5 fold	335 ± 67.5 nM	> 2 fold	142 ± 43.9 nM
